# Experimental data from patent publication US8729034B2, “Pharmaceutical composition having virucidal and spermicidal activity” (priority 2007, dated 2014).
# Entries after “also recorded” stand apart in the source; their conditions may differ. Where two headings read alike, the source gives them in different places.
# Legend:
# Assay type in all cases: cell-based
# mouse spermatozoa = experiment: Sander & Cramer spermicidal assay (in vitro)
# Method: (§1) Sexually mature male mice and rats were autopsied following euthanasia by an overdose of Ketamin (≧200 mg/kg body weight; injected i.p.) and their cauda epididymis were excised. Working suspension of animal spermatozoa was prepared with the exudates obtained after careful pricking of the cauda epididymis with an injection needle (18 G) and the exudates were collected in a conical centrifuge tube.
# (§2) The exudates/liquefied human semen samples were suspended in BWW medium (pre equilibrated at 37 degree C.). The spermatozoa with forward motility were separated from immotile or sluggishly motile cells by the swim-up technique and were allowed to disperse evenly within a CO2 incubator at 37 degree C. At least five aliquots from each sample was used to prepare the working spermatozoa suspension. The swim up procedure was as follows:
# (§3) Pre equilibrated BWW medium (1.25 ml) was gently layered over cauda-exudates or liquefied human semen (1 ml) in a sterile 15 ml conical-based centrifuge tube. The tube was inclined at an angle of 45 degree and incubated for 1 hour at 37 degree C. in a CO2-incubator. It was then gently returned to the upright position and the uppermost 1 ml medium with a turbid appearance was removed. This aliquot of motile cells was pooled from each set, then diluted with same volumes of pre equilibrated BWW medium, centrifuged at 500 g for 5 minutes and finally resuspended in 1 ml pre equilibrated BWW medium to obtain a working suspension. The sperm cells were counted in a Makler chamber (Zygotec Systems, Springfield, M A, USA) and finally a working spermatozoa suspension having concentration of 25 to 30×10^6 cells/ml was prepared.
# (§4) For in vitro assay of spermicidal effect, sperms collected from proven male rats and mice, and motile spermatozoa from liquefied human semen were used.
# (§5) The assay was done following the Sander & Cramer assay method. Two hundred micro liter (200 microliters) of working spermatozoa suspension was added to 1 ml solution of test material in BWW medium and mixed on a light vortex for 10 seconds. A wet mount was immediately prepared on a clean microscopy glass slide and examined (at ×100) under a phase contrast microscope (Leitz, Biomed). The weakest concentration that immobilized all spermatozoa within 20 seconds of mixing was recorded as MEC. At least five fields were examined for each wet mount preparation. The observation was repeated with five individual spermatozoa suspension for each concentration of test compound solution. For negative control, saponin solutions were replaced by equal volume of BWW medium, while Nonoxynol 9 was used as positive control.
# rat spermatozoa [1] = experiment: Sander & Cramer spermicidal assay (in vitro)
# Method: as §1, §2, §3, §4, §5
# human sperm = experiment: Modified Kremer-Test, cervical mucus penetration (Experiment B); conditions: treated at MEC; 30 minutes at 37 degree C
# Text: A modified Kremer-Test was used for assessment of cervical mucus penetrating capacity of treated sperm. A drop of human mid-cycle cervical mucus was placed on a slide and flattened by a cover slip (22 mm×22 mm). A drop of human sperm suspension treated with the test compounds (at MEC) was deposited at the side of the cover slip and in contact with the edge, the sperm suspension moved in under the cover slip by capillary force and a clear interface was obtained between the sperm suspension and the cervical mucus. The slide preparation was placed within a CO2 incubator at 37 degree C. for 30 minutes. Suitable control sets were prepared side by side. Each preparation was examined under a phase contrast microscope to observe the entry of spermatozoa into the cervical mucus zone.
# rat spermatozoa [2] = experiment: Hypo-osmotic swelling (HOS) test
# Method: A hypotonic solution was prepared by dissolving 0.735 g sodium citrate dehydrate and 1.351 g fructose in 100 ml distilled water (Milli Q). Aliquots of this solution kept frozen in −20 degree C. and thawed before use. For the test, 200 microliters of working suspension of rat spermatozoa was treated with one ml of Ac-B solution (at MEC) or BWW (as control) for 20 seconds followed by washing with BWW medium and centrifugation at 1000 rpm for 5 min. Finally the sperm pellet was resuspended in 0.1 ml BWW medium. One ml of prewarmed (37 degree C.) HOS solution was added to the suspension and incubated for one hour at 37 degree C. The incubated sperms were examined under a phase contrast microscope at ×400 magnification to observe the curling of tails. Two hundred spermatozoa were examined for each sample.
# [3] = tested on: Lactobacillus acidophilus
# Method: The media for culture of bacteria purchased from HI-MEDIA, India and spores of Lactobacillus acidophilus were obtained from pharmaceutical capsule marketed by Infer (India) Limited.
# Sterile, molten (45-50 degree C.) Lactobacilli MRS agar was poured into sterile Petri dishes with (a) 1, 10, 100, 200, 500 mg of Ac-B (Experimental) and (b) without Ac-B (Control). The plates were placed within an incubator having 37 degree C. inside temperature and 5% CO2 in air for 72 hours. The number of colonies and their individual size were compared.
# HIV-1 NL-4.3 virus = conditions: for Percentage inhibition of hiv growth in CEM-GFP T cell line, Without Pretreatment: untreated virus
# Method: Human CD4+ T cell line CEM-GFP cells were infected with HIV-1 NL-4.3 virus pretreated without or with Ac-B at varying concentrations (1 hour at 37 degree C.) at a multiplicity of infection (MOI) of 0.01. The cells were then cultured in the presence or absence of Ac-B for up to 7 days post infection. Virus production was analyzed in the culture supernatant on day-7 post infection by p24 antigen capture ELISA
substance,measurement,setting,value
Acaciaside-B [Ac-B],MEC as per Sander and Cramer Test,"mouse spermatozoa; Mouse spermatozoa (N = 10), all immobilized within 20 seconds",60 (±2) microgram per ml
same,"MEC, Sander-Cramer test",mouse spermatozoa; mice,60 µg/mL
same,MEC as per Sander and Cramer Test,"rat spermatozoa [1]; Rat spermatozoa (N = 10), all immobilized within 20 seconds",60 (±2) microgram per ml
same,"MEC, Sander-Cramer test",rat spermatozoa [1]; rats,60 µg/mL
same,Entry of treated spermatozoa into human cervical mucus,human sperm,none of them crossed into the interface
same,"Response to HOS (HOS+), Hypo-osmotic Swelling Test","rat spermatozoa [2]; Ac-B at MEC for 20 seconds, 1 hour in HOS solution at 37 degree C",0% (HOS+)
same,HOS reactivity (curling of tails) of treated spermatozoa,rat spermatozoa [2]; Ac-B treated,no HOS reactivity; also recorded: absence of curling
same,Dose level not affecting growth of Lactobacillus acidophilus,[3],≥ 500 mg/mL
same,Size of Lactobacillus colonies grown in the presence of Ac-B,[3],comparable to that of control
same,"Percentage inhibition of hiv growth in CEM-GFP T cell line, Without Pretreatment","HIV-1 NL-4.3 virus; Ac-B 0.1 microgram per ml, day-7 p24",0%
same,"Percentage inhibition of hiv growth in CEM-GFP T cell line, Pretreatment with Ac-B","HIV-1 NL-4.3 virus; Ac-B 0.1 microgram per ml, virus pretreated 1 hour at 37 degree C, day-7 p24",70.5%
same,"Percentage inhibition of hiv growth in CEM-GFP T cell line, Without Pretreatment",HIV-1 NL-4.3 virus; Ac-B 0.2 microgram per ml,0%
same,"Percentage inhibition of hiv growth in CEM-GFP T cell line, Pretreatment with Ac-B","HIV-1 NL-4.3 virus; Ac-B 0.2 microgram per ml, virus pretreated",77.8%
same,"Percentage inhibition of hiv growth in CEM-GFP T cell line, Without Pretreatment",HIV-1 NL-4.3 virus; Ac-B 0.25 microgram per ml,0%
same,"Percentage inhibition of hiv growth in CEM-GFP T cell line, Pretreatment with Ac-B","HIV-1 NL-4.3 virus; Ac-B 0.25 microgram per ml, virus pretreated",92%
same,"Percentage inhibition of hiv growth in CEM-GFP T cell line, Without Pretreatment",HIV-1 NL-4.3 virus; Ac-B 0.5 microgram per ml,36.1%
same,"Percentage inhibition of hiv growth in CEM-GFP T cell line, Pretreatment with Ac-B","HIV-1 NL-4.3 virus; Ac-B 0.5 microgram per ml, virus pretreated",90.6%
same,"Percentage inhibition of hiv growth in CEM-GFP T cell line, Without Pretreatment",HIV-1 NL-4.3 virus; Ac-B 1 microgram per ml,60.5%
same,"Percentage inhibition of hiv growth in CEM-GFP T cell line, Pretreatment with Ac-B","HIV-1 NL-4.3 virus; Ac-B 1 microgram per ml, virus pretreated",99.73%
same,"Percentage inhibition of hiv growth in CEM-GFP T cell line, Without Pretreatment",HIV-1 NL-4.3 virus; Ac-B 1.5 microgram per ml,100%
same,"Percentage inhibition of hiv growth in CEM-GFP T cell line, Pretreatment with Ac-B","HIV-1 NL-4.3 virus; Ac-B 1.5 microgram per ml, virus pretreated",100%
same,"Percentage inhibition of hiv growth in CEM-GFP T cell line, Without Pretreatment",HIV-1 NL-4.3 virus; Ac-B 2 microgram per ml,100%
same,"Percentage inhibition of hiv growth in CEM-GFP T cell line, Pretreatment with Ac-B","HIV-1 NL-4.3 virus; Ac-B 2 microgram per ml, virus pretreated",100%
same,"Percentage inhibition of hiv growth in CEM-GFP T cell line, Without Pretreatment",HIV-1 NL-4.3 virus; Ac-B 2.5 microgram per ml,100%
same,"Percentage inhibition of hiv growth in CEM-GFP T cell line, Pretreatment with Ac-B","HIV-1 NL-4.3 virus; Ac-B 2.5 microgram per ml, virus pretreated",100%
same,"Inhibition of viral transmission, untreated virus","HIV-1 NL-4.3 virus; cells infected with untreated virus, cultured in the presence of Ac-B 0.1 to 2.5 microgram per ml",only partial inhibition
